Measured values: patent US9024041B2, “P38 MAP kinase inhibitors” (Respivert Ltd., priority 2010, dated 2015)
pEC50, pIC50: −log10 of the molar value.

Legend:
[1] = molecular target: T1, Recombinant, phosphorylated p38 MAPKγ (MAPK12:Invitrogen) (Homo sapiens, UniProt P53778); experiment: p38 MAPKγ enzyme inhibition assay (FRET, Z-LYTE); assay type: biochemical; conditions: 2 hr pre-incubation, ATP 100 μM; read-out: Enzyme Inhibition IC50 p38γ
T1 construct: purchased Invitrogen
T1 sequence (P53778 1-367): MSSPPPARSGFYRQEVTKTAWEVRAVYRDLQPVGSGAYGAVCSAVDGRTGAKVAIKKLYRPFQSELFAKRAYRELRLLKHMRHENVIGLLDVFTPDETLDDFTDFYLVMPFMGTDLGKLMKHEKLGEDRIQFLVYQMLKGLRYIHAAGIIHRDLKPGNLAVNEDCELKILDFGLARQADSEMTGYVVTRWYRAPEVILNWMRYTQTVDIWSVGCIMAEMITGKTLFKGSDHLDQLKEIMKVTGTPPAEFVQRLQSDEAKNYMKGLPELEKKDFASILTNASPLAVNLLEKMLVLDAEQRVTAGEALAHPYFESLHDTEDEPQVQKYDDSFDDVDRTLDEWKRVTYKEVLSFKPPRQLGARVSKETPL

[2] = test system: Poly I:C-induced ICAM-1 expression in BEAS2B cells; experiment: Poly I:C-induced ICAM-1 induction in BEAS2B cells; assay type: cell-based; conditions: Homo sapiens, BEAS-2B, poly I:C 1 μg/mL, 18 hr, read-out: PolyI:C/ICAM1 IC50 BEAS2B
Outline: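 Human bronchial epithelial BEAS2B cells were pre-incubated with compound for 2 h, then transfected with poly I:C at 1 μg/mL. Surface ICAM-1 was measured 18 h later by cell-based ELISA (OD450–655), normalised to crystal-violet cell number (OD595). IC50 was taken from the concentration–response curve against vehicle.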

[3] = molecular target: T2, p38 MAPKα isoform (MAPK14: Invitrogen) (Homo sapiens, UniProt Q16539); experiment: p38 MAPKα enzyme inhibition assay (FRET, Z-LYTE, via MAPKAP-K2 activation); assay type: biochemical; conditions: 2 hr pre-incubation, ATP 10.0 μM; read-out: Enzyme Inhibition IC50 p38α
T2 construct: purchased Invitrogen
T2 sequence (Q16539 whole entry, canonical isoform): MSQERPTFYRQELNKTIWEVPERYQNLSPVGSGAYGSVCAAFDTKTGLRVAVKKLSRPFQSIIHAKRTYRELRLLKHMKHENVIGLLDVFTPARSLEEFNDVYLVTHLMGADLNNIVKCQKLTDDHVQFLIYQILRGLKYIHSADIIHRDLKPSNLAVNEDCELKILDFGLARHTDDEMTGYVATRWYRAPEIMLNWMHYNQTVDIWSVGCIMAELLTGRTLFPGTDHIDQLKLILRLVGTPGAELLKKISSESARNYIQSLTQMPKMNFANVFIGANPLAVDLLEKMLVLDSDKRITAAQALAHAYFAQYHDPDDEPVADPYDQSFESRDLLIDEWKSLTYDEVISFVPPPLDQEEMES
Method: The enzyme inhibitory activities of compounds disclosed herein were determined by fluorescence resonance energy transfer (FRET) using synthetic peptides labelled with both donor and acceptor fluorophores (Z-LYTE, Invitrogen Ltd., Paisley, UK). Recombinant, phosphorylated p38 MAPKγ (MAPK12:Invitrogen) was diluted in HEPES buffer, mixed with the test compound at the desired final concentrations and incubated for 2 hr at RT. The FRET peptide (2 μM) and ATP (100 μM) were added to the enzyme/compound mixture and incubated for 1 hr. Development reagent (protease) was added for 1 hr prior to detection in a fluorescence microplate reader (Varioskan® Flash, ThermoFisher Scientific). The site-specific protease cleaves non-phosphorylated peptide only and eliminates the FRET signal. Phosphorylation levels of each reaction were calculated using the ratio of coumarin emission (donor) over fluorescein emission (acceptor) for which high ratios indicate high phosphorylation and low ratios indicate low phosphorylation levels.
For the p38 MAPKα isoform (MAPK14: Invitrogen), enzyme activity was evaluated indirectly by determining the level of activation/phosphorylation of the down-stream molecule, MAPKAP-K2. The p38 MAPKα protein was mixed with the test compound for 2 hr at RT. […] Development reagent was then added and the mixture incubated for 1 hr before detection by fluorescence completed the assay protocol.

[4] = test system: LPS-induced TNFα release in d-U937 cells; experiment: LPS-induced TNFα release in d-U937 cells; assay type: cell-based; conditions: Homo sapiens, dU937, 4 h; read-out: LPS/TNFα REC50 d-U937
Outline: (§1)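 U937 cells differentiated with PMA (100 ng/mL, 48–72 hr), pre-incubated with compound 2 hr, then stimulated with 0.1 μg/mL E. coli O111:B4 LPS for 4 hr. Supernatant TNFα and IL-8 measured by sandwich ELISA; REC50 (TNFα) and IC50 (IL-8 inhibition vs vehicle) taken from concentration-response curves.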

[5] = test system: LPS-induced IL-8 release in d-U937 cells; experiment: LPS-induced IL-8 release in d-U937 cells; assay type: cell-based; conditions: Homo sapiens, dU937, 0.1 μg/mL LPS, 4 hr
Outline: as §1

[6] = test system: LPS-induced TNFα release in THP-1 cells; experiment: LPS-induced TNFα release in THP-1 cells; assay type: cell-based; conditions: Homo sapiens, 3 μg/mL LPS, 4 hr
Outline: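 Human monocytic cells were stimulated with 3 μg/mL E. coli LPS for 4 hr. Supernatant TNFα was measured by sandwich ELISA. Inhibition was taken relative to vehicle control, and IC50 derived from the concentration-response curve.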

[7] = test system: Differentiated U937 cells; experiment: MTT assay: cell viability on exposure to test compounds; assay type: cell-based, human; conditions: percentage loss of cell viability vs vehicle, 1 μg/mL; for MTT Assay (Viability) 4 h d-U937: 5% FCS; for MTT Assay (Viability) 24 h d-U937: 10% FCS
Outline: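 Differentiated U937 cells were pre-incubated with compound for either 4 h in 5% FCS or 24 h in 10% FCS, then given MTT for 1 h. Formazan was dissolved in DMSO and read at 550 nm. Viability loss is expressed as % versus 0.5% DMSO vehicle, so an apparent gain appears as a negative value.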

| pIC50 [1] | pIC50 [3] | pEC50 [4] | pIC50 [5] | pIC50 [6] | Structure (SMILES) | pIC50 [2] | MTT Assay (Viability) 4 h d-U937 [7] | MTT Assay (Viability) 24 h d-U937 [7] |
| --- | --- | --- | --- | --- | --- | --- | --- | --- |
| 6.91 | 7.80 | 7.74 | 7.66 | 8.77 | CNC(=O)Nc1cc(Oc2ccc(NC(=O)Nc3cc(C(C)(C)C)nn3-c3ccc(OC)cc3)c3ccccc23)ccn1 [Example 38, 1-(4-(4-(3-(3-tert-butyl-1-(4-methoxyphenyl)-1H-pyrazol-5-yl)ureido)naphthalen-1-yloxy)pyridin-2-yl)-3-methylurea] | 8.01 | −1.7% | −38.2% |
| 7.09 | 7.51 | 8.74 | 7.63 | 8.74 | CNC(=O)Nc1cc(Oc2ccc(NC(=O)Nc3cc(C(C)(C)C)nn3-c3ccc(OC)nc3)c(C)c2C)ccn1 [Example 39, 1-(4-(4-(3-(3-tert-butyl-1-(6-methoxypyridin-3-yl)-1H-pyrazol-5-yl)ureido)-2,3-dimethylphenoxy)pyridin-2-yl)-3-methylurea] | 8.54 | −12.6% | 21.6% |
| 6.95 | 7.81 | 9.05 | 8.21 | 8.82 | COc1ccc(-n2nc(C(C)(C)C)cc2NC(=O)Nc2ccc(Oc3ccnc(NC(=O)N4CCOCC4)c3)c3ccccc23)cn1 [Example 40, N-(4-(4-(3-(3-tert-butyl-1-(6-methoxypyridin-3-yl)-1H-pyrazol-5-yl)ureido)naphthalen-1-yloxy)pyridin-2-yl)morpholine-4-carboxamide] | 8.32 | −12.1% | −12.0% |
| 6.06 | 7.58 | 7.82 | 7.98 | 8.12 | COCC(=O)Nc1cc(Oc2ccc(NC(=O)Nc3cc(C(C)(C)C)nn3-c3ccc(OC(F)(F)F)cc3)c3ccccc23)ccn1 [Example 41, N-(4-(4-(3-(3-tert-butyl-1-(4-(trifluoromethoxy)phenyl)-1H-pyrazol-5-yl)ureido)naphthalen-1-yloxy)pyridin-2-yl)-2-methoxyacetamide] | 7.67 | −26.2% | 1.3% |
| 6.62 | 7.60 | 8.14 | 7.72 | 8.55 | COCC(=O)Nc1cc(Oc2ccc(NC(=O)Nc3cc(C(C)(C)C)nn3-c3ccc(Cl)cc3)c3ccccc23)ccn1 [Example 42, N-(4-(4-(3-(3-tert-butyl-1-(4-chlorophenyl)-1H-pyrazol-5-yl)ureido)naphthalen-1-yloxy)pyridin-2-yl)-2-methoxyacetamide] | 7.65 | −10.7% | −24.9% |
| 6.72 | 8.08 | 8.80 | 8.05 | 8.70 | COCC(=O)Nc1cc(Oc2ccc(NC(=O)Nc3cc(C(C)(C)C)nn3-c3ccc(C(=O)OC)cc3)c3ccccc23)ccn1 [Example 43, methyl 4-(3-tert-butyl-5-(3-(4-((2-(2-methoxyacetamido)pyridin-4-yl)oxy)naphthalen-1-yl)ureido)-1H-pyrazol-1-yl)benzoate] | 8.77 | −12.8% | 0.1% |
| 6.71 | 7.82 | 10.00 | 8.23 | 8.92 | COCC(=O)Nc1cc(Oc2ccc(NC(=O)Nc3cc(C(C)(C)C)nn3-c3ccc(SC)cc3)c3ccccc23)ccn1 [Example 44, N-(4-(4-(3-(3-tert-butyl-1-(4-(methylthio)phenyl)-1H-pyrazol-5-yl)ureido)naphthalen-1-yloxy)pyridin-2-yl)-2-methoxyacetamide] | 8.12 | −4.0% | −16.4% |
| 6.98 | 7.44 | 9.40 | 8.70 | 8.64 | CNC(=O)Nc1cc(Oc2ccc(NC(=O)Nc3cc(C(C)(C)C)nn3-c3ccc(S(C)(=O)=O)cc3)c3ccccc23)ccn1 [Example 46, 1-(3-tert-butyl-1-(4-(methylsulfonyl)phenyl)-1H-pyrazol-5-yl)-3-(4-((2-(3-methylureido)pyridin-4-yl)oxy)naphthalen-1-yl)urea] | 7.39 | −12.6% | −47.9% |
| 6.58 | 8.08 | 7.77 | 7.61 | 7.76 | CC(C)(C)c1cc(NC(=O)Nc2ccc(Oc3ccnc(NC(=O)NC4CC4)c3)c3ccccc23)n(-c2ccc(S(C)(=O)=O)cc2)n1 [Example 47, 1-(3-tert-butyl-1-(4-(methylsulfonyl)phenyl)-1H-pyrazol-5-yl)-3-(4-(2-(3-cyclopropylureido)pyridin-4-yloxy)naphthalen-1-yl)urea] | 8.62 | 3.5% | −21.7% |
| 6.91 | 9.22 | 8.62 | 8.30 | 8.47 | CN1CCN(C(=O)Nc2cc(Oc3ccc(NC(=O)Nc4cc(C(C)(C)C)nn4-c4ccc(S(C)(=O)=O)cc4)c4ccccc34)ccn2)CC1 [Example 48, N-(4-(4-(3-(3-tert-butyl-1-(4-(methylsulfonyl)phenyl)-1H-pyrazol-5-yl)ureido)naphthalen-1-yloxy)pyridin-2-yl)-4-methylpiperazine-1-carboxamide] | 7.49 | −16.1% | −11.3% |
| 6.73 | 8.28 | 9.30 | 9.10 | 9.10 | CC(C)(C)c1cc(NC(=O)Nc2ccc(Oc3ccnc(NC(=O)N4CCOCC4)c3)c3ccccc23)n(-c2ccc(S(C)(=O)=O)cc2)n1 [Example 49, N-(4-(4-(3-(3-tert-butyl-1-(4-(methylsulfonyl)phenyl)-1H-pyrazol-5-yl)ureido)naphthalen-1-yloxy)pyridin-2-yl)morpholine-4-carboxamide] | 7.97 | −15.9% | 11.8% |
| 7.41 | 8.02 | 8.35 | 6.56 | 7.88 | COCC(=O)Nc1cc(Oc2ccc(NC(=O)Nc3cc(C(C)(C)C)nn3-c3ccc(S(C)(=O)=O)cc3)c3ccccc23)ncn1 [Example 50, N-(6-(4-(3-(3-tert-butyl-1-(4-(methylsulfonyl)phenyl)-1H-pyrazol-5-yl)ureido)naphthalen-1-yloxy)pyrimidin-4-yl)-2-methoxyacetamide] | 7.00 | −8.0% | −10.4% |
| 6.48 | 8.72 | 7.79 | < 5.79 | 8.09 | COCC(=O)Nc1cc(Oc2ccc(NC(=O)Nc3cc(C(C)(C)C)nn3-c3ccc(O)c(Cl)c3)c3ccccc23)ccn1 [Example 52, N-(4-(4-(3-(3-tert-butyl-1-(3-chloro-4-hydroxyphenyl)-1H-pyrazol-5-yl)ureido)naphthalen-1-yloxy)pyridin-2-yl)-2-methoxyacetamide] | 8.24 | 8.5% | −48.8% |
| 7.08 | 7.52 | 9.40 | 7.70 | 8.92 | COCC(=O)Nc1cc(Oc2ccc(NC(=O)Nc3cc(C(C)(C)C)nn3-c3cc(OC)cc(OC)c3)c3ccccc23)ccn1 [Example 53, N-(4-(4-(3-(3-tert-butyl-1-(3,5-dimethoxyphenyl)-1H-pyrazol-5-yl)ureido)naphthalen-1-yloxy)pyridin-2-yl)-2-methoxyacetamide] | 7.56 | 3.1% | −0.9% |
